Reference: ChEMBL document CHEMBL5375948, “Development and Pharmacochemical Characterization Discover a Novel Brain-Permeable HDAC11-Selective Inhibitor with Therapeutic Potential by Regulating Neuroinflammation in Mice” (J Med Chem, 2023)

Legend:
Histone deacetylase 11 = biological target: T1, Histone deacetylase 11 (Homo sapiens, UniProt Q96DB2); assay: Inhibition of recombinant full-length human HDAC11 using FAM-RHKK (trifluor-Ac)-NH2 as substrate by electrophoretic mobility shift assay
T1 sequence (Q96DB2 whole entry): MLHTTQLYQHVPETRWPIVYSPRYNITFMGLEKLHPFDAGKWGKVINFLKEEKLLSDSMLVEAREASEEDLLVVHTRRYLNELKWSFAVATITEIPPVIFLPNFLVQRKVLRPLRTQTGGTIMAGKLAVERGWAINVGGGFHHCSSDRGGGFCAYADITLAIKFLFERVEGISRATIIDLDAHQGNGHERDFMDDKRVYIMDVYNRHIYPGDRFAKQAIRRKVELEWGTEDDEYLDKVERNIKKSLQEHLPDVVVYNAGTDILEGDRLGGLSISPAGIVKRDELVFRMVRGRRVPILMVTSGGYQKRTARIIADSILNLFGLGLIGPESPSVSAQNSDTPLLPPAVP

Histone deacetylase 9 = Histone deacetylase 9 (Homo sapiens, UniProt Q9UKV0); assay: Inhibition of recombinant full-length human HDAC9 using FAM-RHKK (trifluor-Ac)-NH2 as substrate by electrophoretic mobility shift assay
Sequence of Histone deacetylase 9 (Q9UKV0 whole entry): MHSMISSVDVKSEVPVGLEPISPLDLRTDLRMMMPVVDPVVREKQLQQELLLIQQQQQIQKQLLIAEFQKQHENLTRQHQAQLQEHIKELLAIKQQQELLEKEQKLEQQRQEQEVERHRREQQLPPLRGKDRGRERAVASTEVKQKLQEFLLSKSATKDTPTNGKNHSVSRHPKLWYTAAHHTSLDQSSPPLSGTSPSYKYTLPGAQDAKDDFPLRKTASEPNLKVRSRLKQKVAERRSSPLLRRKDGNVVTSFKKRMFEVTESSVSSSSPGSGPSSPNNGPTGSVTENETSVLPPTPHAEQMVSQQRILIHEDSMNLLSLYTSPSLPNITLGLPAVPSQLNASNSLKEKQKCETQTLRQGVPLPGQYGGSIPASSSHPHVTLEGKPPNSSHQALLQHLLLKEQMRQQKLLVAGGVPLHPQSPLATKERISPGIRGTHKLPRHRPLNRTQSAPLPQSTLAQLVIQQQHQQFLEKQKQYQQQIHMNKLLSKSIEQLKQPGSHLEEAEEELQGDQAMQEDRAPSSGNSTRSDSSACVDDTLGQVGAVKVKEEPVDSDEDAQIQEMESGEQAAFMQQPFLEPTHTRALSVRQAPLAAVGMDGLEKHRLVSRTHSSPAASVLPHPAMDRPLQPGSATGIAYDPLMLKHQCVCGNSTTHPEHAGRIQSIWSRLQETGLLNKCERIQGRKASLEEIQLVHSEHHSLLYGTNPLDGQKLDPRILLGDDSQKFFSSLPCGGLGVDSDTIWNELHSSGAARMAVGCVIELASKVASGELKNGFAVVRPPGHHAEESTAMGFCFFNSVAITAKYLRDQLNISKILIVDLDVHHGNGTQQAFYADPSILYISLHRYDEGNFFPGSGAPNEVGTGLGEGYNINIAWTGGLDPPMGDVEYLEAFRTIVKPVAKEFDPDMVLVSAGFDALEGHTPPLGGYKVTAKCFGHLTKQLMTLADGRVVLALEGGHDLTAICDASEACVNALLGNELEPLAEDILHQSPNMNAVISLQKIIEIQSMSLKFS

Histone deacetylase 4 = Histone deacetylase 4 (Homo sapiens, UniProt P56524); assay: Inhibition of recombinant full-length human HDAC4 using FAM-RHKK (trifluor-Ac)-NH2 as substrate by electrophoretic mobility shift assay
Sequence of Histone deacetylase 4 (P56524 whole entry): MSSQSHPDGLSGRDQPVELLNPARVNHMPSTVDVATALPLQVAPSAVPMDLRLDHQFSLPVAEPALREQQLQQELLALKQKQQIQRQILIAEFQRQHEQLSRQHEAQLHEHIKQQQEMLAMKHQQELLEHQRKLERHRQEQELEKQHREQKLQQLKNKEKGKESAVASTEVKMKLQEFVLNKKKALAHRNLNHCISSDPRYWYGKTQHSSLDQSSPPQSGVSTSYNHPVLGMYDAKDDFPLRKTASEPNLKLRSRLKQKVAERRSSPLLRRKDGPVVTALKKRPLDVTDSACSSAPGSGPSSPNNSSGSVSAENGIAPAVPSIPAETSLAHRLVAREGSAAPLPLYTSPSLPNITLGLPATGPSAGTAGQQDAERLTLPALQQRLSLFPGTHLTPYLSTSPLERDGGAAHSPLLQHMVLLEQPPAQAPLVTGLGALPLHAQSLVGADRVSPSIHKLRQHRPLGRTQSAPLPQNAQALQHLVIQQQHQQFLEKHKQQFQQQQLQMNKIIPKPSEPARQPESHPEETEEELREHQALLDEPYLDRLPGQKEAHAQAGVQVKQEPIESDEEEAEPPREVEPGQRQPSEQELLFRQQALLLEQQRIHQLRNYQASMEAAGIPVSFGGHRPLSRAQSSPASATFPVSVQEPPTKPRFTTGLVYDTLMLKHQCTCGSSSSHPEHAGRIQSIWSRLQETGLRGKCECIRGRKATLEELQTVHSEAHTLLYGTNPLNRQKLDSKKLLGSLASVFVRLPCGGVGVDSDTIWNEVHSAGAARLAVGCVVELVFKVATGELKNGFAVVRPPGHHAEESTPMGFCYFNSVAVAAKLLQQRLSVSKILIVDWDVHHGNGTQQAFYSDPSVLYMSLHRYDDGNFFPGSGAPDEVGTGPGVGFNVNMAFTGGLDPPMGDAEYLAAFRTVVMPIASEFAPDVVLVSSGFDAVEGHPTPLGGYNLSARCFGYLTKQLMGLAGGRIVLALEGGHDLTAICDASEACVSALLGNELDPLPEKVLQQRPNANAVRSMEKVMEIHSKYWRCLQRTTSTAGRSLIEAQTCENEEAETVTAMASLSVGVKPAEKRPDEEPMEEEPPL

[1] = biological target: T2, Polyamine deacetylase HDAC10 (Homo sapiens, UniProt Q969S8); assay: Inhibition of recombinant full-length human HDAC10 using FITC-H3K27(Ac)-NH2 as substrate by electrophoretic mobility shift assay
T2 sequence (Q969S8 whole entry): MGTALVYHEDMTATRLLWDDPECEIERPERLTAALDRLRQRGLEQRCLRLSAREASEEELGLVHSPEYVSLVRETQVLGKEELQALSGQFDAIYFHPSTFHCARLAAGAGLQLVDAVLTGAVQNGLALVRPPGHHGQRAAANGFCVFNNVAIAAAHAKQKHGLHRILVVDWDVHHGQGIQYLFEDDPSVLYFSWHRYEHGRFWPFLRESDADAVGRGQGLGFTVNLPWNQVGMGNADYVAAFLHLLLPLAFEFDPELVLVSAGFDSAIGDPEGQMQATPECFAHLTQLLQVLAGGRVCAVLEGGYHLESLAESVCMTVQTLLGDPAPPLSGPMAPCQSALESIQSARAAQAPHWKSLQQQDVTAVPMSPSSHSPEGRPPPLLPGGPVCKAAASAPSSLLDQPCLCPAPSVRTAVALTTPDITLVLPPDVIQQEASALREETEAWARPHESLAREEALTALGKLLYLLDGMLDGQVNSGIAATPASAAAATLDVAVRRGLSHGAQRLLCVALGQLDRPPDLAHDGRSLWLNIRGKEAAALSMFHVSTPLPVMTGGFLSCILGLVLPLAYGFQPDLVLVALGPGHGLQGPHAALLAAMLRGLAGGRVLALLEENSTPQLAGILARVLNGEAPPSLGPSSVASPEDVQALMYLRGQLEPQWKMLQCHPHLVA

Histone deacetylase 5 = Histone deacetylase 5 (Homo sapiens, UniProt Q9UQL6); assay: Inhibition of recombinant full-length human HDAC5 using FAM-RHKK (trifluor-Ac)-NH2 as substrate by electrophoretic mobility shift assay
Sequence of Histone deacetylase 5 (Q9UQL6 whole entry): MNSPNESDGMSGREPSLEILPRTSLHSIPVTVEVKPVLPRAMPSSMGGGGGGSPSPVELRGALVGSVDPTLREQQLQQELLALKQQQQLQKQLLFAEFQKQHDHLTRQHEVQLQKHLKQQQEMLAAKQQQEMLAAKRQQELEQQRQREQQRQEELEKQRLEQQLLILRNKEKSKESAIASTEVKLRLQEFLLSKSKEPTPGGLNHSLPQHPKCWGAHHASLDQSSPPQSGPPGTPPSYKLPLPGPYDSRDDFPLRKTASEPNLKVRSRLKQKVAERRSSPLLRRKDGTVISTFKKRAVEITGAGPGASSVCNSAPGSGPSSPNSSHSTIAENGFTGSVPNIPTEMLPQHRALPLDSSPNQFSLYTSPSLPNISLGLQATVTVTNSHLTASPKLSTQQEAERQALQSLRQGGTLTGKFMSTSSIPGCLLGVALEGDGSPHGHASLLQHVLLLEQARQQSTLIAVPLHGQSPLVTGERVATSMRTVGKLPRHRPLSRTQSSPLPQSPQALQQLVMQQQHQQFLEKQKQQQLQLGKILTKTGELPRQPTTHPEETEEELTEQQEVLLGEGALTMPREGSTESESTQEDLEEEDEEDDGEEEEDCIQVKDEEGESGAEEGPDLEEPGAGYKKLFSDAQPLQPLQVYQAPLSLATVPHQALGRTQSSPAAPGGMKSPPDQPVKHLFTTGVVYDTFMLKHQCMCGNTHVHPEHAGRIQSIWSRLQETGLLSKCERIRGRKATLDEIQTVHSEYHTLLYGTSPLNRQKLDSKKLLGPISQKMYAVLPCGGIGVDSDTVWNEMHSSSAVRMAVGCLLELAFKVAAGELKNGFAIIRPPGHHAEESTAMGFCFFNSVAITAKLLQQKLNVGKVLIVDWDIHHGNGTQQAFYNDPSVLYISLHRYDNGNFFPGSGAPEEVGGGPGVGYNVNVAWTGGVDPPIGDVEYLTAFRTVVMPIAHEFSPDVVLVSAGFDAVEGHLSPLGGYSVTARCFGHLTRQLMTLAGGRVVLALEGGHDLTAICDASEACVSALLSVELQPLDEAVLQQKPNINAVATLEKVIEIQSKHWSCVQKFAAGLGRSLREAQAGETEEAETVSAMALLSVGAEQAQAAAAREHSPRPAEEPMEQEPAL

Histone deacetylase 1 = Histone deacetylase 1 (Homo sapiens, UniProt Q13547); assay: Inhibition of recombinant full-length human HDAC1 using FITC-H3K27(Ac)-NH2 as substrate by electrophoretic mobility shift assay
Sequence of Histone deacetylase 1 (Q13547 whole entry): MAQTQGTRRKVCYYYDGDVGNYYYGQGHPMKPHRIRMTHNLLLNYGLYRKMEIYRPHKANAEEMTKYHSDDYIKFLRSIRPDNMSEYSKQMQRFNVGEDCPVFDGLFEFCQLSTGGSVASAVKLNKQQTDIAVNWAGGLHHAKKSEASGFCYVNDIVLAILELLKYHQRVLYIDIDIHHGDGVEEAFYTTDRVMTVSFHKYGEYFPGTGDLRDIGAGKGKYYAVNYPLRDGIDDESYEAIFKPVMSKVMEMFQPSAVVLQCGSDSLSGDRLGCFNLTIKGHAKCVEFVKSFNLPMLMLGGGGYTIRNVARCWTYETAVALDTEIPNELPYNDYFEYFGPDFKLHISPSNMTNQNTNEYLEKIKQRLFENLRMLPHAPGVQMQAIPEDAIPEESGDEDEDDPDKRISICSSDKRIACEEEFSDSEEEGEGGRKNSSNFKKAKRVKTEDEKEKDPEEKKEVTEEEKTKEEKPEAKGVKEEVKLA

Histone deacetylase 3 = Histone deacetylase 3 (Homo sapiens, UniProt O15379)
Sequence of Histone deacetylase 3 (O15379 whole entry): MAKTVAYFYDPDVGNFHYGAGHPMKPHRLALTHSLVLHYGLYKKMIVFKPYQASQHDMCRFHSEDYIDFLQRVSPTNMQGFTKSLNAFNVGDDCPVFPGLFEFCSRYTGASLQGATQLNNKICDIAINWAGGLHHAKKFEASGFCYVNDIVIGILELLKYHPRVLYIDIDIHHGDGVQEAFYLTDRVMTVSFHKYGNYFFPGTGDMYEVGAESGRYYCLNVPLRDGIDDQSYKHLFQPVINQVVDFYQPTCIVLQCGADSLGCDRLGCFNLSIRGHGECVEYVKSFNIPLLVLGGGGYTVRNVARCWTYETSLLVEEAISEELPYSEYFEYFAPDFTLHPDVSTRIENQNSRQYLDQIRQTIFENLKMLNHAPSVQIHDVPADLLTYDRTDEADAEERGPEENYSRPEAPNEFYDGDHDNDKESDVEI

Histone deacetylase 2 = Histone deacetylase 2 (Homo sapiens, UniProt Q92769); assay: Inhibition of recombinant full-length human HDAC2 using FITC-H3K27(Ac)-NH2 as substrate by electrophoretic mobility shift assay
Sequence of Histone deacetylase 2 (Q92769 whole entry): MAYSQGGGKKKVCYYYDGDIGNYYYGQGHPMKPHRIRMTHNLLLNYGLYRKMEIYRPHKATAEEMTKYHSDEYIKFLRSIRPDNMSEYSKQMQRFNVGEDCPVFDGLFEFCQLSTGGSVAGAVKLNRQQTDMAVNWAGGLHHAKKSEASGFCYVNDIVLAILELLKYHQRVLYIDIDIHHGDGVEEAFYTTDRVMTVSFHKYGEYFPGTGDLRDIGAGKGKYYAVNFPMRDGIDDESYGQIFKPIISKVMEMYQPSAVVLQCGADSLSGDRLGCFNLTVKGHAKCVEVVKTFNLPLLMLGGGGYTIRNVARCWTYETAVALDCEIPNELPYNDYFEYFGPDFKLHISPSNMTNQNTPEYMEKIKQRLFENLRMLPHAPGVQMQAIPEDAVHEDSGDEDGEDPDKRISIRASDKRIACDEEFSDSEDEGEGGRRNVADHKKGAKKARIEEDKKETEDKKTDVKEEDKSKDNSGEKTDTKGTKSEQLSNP

Histone deacetylase 8 = biological target: T3, Histone deacetylase 8 (Homo sapiens, UniProt Q9BY41); assay: Inhibition of recombinant full-length human HDAC8 using FAM-RHKK(Ac)-NH2 as substrate by electrophoretic mobility shift assay
T3 sequence (Q9BY41 whole entry): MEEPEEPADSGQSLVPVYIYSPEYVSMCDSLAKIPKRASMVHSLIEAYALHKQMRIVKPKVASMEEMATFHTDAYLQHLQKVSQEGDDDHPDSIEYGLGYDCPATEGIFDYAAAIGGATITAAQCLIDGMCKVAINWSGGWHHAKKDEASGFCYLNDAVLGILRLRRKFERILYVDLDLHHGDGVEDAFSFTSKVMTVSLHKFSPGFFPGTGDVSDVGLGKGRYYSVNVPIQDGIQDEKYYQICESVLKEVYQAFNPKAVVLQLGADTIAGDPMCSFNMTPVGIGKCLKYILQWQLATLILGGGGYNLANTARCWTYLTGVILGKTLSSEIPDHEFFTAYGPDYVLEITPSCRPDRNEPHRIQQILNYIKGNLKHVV

Histone deacetylase 7 = biological target: T4, Histone deacetylase 7 (Homo sapiens, UniProt Q8WUI4); assay: Inhibition of recombinant full-length human HDAC7 using FAM-RHKK (trifluor-Ac)-NH2 as substrate by electrophoretic mobility shift assay
T4 sequence (Q8WUI4 whole entry): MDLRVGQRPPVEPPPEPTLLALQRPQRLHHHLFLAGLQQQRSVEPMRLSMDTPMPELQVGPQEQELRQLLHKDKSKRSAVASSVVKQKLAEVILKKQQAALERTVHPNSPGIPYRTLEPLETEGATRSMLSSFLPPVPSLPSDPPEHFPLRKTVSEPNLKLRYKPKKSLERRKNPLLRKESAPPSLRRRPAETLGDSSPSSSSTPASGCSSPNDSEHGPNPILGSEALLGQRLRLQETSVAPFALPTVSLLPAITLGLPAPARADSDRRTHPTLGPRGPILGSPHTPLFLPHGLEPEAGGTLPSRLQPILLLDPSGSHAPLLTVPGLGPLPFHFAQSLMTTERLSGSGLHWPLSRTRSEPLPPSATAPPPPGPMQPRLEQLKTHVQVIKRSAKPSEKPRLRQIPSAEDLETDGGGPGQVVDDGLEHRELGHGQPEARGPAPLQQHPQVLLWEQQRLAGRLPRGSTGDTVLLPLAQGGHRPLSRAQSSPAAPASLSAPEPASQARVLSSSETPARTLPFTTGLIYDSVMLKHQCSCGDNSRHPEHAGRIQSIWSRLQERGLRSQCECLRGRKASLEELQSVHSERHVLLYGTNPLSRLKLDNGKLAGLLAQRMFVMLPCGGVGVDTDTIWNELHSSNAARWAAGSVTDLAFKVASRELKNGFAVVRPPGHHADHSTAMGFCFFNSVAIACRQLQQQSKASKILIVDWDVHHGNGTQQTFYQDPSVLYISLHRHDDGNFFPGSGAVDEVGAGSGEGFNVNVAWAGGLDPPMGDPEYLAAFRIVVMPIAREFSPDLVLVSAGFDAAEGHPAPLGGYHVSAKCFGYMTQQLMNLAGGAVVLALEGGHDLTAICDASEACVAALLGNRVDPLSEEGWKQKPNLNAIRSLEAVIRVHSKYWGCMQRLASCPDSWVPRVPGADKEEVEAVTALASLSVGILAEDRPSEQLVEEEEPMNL

[2] = biological target: T5, Protein deacetylase HDAC6 (Homo sapiens, UniProt Q9UBN7); assay: Inhibition of recombinant full-length human HDAC6 using FAM-RHKK(Ac)-NH2 as substrate by electrophoretic mobility shift assay
T5 sequence (Q9UBN7 whole entry): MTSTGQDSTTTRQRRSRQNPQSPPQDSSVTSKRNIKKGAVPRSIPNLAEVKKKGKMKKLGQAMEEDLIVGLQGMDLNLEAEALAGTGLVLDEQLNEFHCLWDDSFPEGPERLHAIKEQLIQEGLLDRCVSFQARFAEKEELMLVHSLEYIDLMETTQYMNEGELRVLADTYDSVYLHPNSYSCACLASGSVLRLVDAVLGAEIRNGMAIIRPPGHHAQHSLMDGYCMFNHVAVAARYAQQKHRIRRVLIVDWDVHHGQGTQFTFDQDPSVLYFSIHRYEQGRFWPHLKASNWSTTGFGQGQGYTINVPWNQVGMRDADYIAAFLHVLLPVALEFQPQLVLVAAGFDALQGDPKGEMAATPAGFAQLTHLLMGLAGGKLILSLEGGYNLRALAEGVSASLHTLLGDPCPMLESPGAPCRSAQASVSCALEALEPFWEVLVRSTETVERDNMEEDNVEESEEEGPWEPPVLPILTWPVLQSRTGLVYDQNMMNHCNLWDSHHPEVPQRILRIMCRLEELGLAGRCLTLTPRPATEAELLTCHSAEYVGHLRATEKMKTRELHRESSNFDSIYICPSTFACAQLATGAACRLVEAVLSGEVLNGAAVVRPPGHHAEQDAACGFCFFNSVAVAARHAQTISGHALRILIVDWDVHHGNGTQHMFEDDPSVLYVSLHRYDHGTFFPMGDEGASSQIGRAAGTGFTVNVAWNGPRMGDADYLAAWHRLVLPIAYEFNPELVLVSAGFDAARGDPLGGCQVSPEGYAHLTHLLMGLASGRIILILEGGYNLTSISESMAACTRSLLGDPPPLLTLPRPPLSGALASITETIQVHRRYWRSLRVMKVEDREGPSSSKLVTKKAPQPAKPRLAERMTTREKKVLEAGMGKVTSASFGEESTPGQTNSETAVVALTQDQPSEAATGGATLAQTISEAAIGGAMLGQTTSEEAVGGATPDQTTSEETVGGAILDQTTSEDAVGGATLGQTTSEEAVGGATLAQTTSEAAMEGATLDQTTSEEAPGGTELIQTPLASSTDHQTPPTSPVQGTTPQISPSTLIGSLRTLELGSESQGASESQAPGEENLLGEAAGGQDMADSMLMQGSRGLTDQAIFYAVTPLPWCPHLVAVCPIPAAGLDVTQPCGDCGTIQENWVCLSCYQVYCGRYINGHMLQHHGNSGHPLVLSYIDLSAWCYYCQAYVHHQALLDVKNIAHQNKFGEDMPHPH

IC50 (Histone deacetylase 11) [nM] | IC50 (Histone deacetylase 9) [nM] | IC50 (Histone deacetylase 4) [nM] | IC50 [1] [nM] | IC50 (Histone deacetylase 5) [nM] | IC50 (Histone deacetylase 1) [nM] | IC50 (Histone deacetylase 3) [nM] | IC50 (Histone deacetylase 2) [nM] | IC50 (Histone deacetylase 8) [nM] | IC50 (Histone deacetylase 7) [nM] | IC50 [2] [nM] | Structure (SMILES)
8890 | – | – | – | – | – | – | – | – | – | – | COc1cc(C(=O)NCC23CC4CC(CC(C4)C2)C3)ccc1C(=O)NO
93 | 2840 | 3040 | > 10000 | 1880 | > 10000 | 1330 | > 10000 | 160 | – | 640 | COc1cc(C(=O)NO)ccc1Cn1ccc2cc(C(=O)NCC34C[C@H]5C[C@@H](C3)C[C@@H](C4)C5)ccc21
4210 | – | – | – | – | – | – | – | – | – | > 10000 | COc1cc(CN(C)CCC23CC4CC(CC(C4)C2)C3)ccc1C(=O)NO
140 | 4530 | – | 9050 | – | > 10000 | – | > 10000 | 410 | 570 | 220 | O=C(NCC12C[C@H]3C[C@@H](C1)C[C@@H](C2)C3)c1ccc2c(ccn2Cc2ccc(C(=O)NO)c(Cl)c2)c1

Continued, compound first:

Structure (SMILES) | IC50 (Histone deacetylase 11) [nM] | IC50 (Histone deacetylase 9) [nM] | IC50 (Histone deacetylase 4) [nM] | IC50 [1] [nM] | IC50 (Histone deacetylase 5) [nM] | IC50 (Histone deacetylase 1) [nM] | IC50 (Histone deacetylase 3) [nM] | IC50 (Histone deacetylase 2) [nM] | IC50 (Histone deacetylase 8) [nM] | IC50 (Histone deacetylase 7) [nM] | IC50 [2] [nM]
CCCNNC(=O)c1ccc(Cn2ccc3cc(C(=O)NCC45C[C@H]6C[C@@H](C4)C[C@@H](C5)C6)ccc32)cc1 | 2610 | – | – | – | – | – | – | – | – | – | –
O=C(NO)c1ccc(Cn2ccc3cc(C(=O)NCC45C[C@H]6C[C@@H](C4)C[C@@H](C5)C6)ccc32)cc1 | 480 | 5250 | 1090 | > 10000 | > 10000 | 880 | 980 | 1900 | 1950 | – | –
CCOc1cc(Cn2ccc3cc(C(=O)NCC45C[C@H]6C[C@@H](C4)C[C@@H](C5)C6)ccc32)ccc1C(=O)NO | 250 | > 10000 | > 10000 | > 10000 | – | > 10000 | – | > 10000 | > 10000 | 4030 | –
O=C(NCC12C[C@H]3C[C@@H](C1)C[C@@H](C2)C3)c1ccc2c(ccn2Cc2ccc(C(=O)NO)c(O)c2)c1 | – | – | – | > 10000 | 7250 | > 10000 | 8120 | > 10000 | – | – | –
O=C(NO)c1ccc(Cn2ccc3cc(C(=O)NCC45C[C@H]6C[C@@H](C4)C[C@@H](C5)C6)ccc32)c(F)c1 | – | 2090 | 1120 | 230 | > 10000 | 190 | 690 | 1020 | – | – | 8
O=C(NCC12C[C@H]3C[C@@H](C1)C[C@@H](C2)C3)c1ccc2c(ccn2Cc2ccc(C(=O)NO)c(F)c2)c1 | 79 | – | – | 600 | – | – | 180 | 3400 | – | – | –
Cc1cc(Cn2ccc3cc(C(=O)NCC45C[C@H]6C[C@@H](C4)C[C@@H](C5)C6)ccc32)ccc1C(=O)NO | 350 | – | > 10000 | > 10000 | – | > 10000 | > 10000 | > 10000 | 2060 | – | –
COc1cc(CN(C)CC23CC4CC(CC(C4)C2)C3)ccc1C(=O)NO | > 10000 | – | – | – | – | – | – | – | – | – | > 10000
O=C(NCC12C[C@H]3C[C@@H](C1)C[C@@H](C2)C3)c1ccc2c(ccn2Cc2ccc(C(=O)NO)c(Br)c2)c1 | – | 9310 | – | 8970 | – | 7320 | 2230 | > 10000 | – | – | –
